This note sets out measurements from patent US10774281B2, “Use of a particular carboxylic amino acid in order to limit the formation and/or agglomeration of gas hydrates” (Arkema France, priority 2015, dated 2020).

The nature of data set [1]: Biodegradability in marine medium, OCDE test 306. Particulars: in words. The protocol:
(§1) According to OCDE test 306 (marine medium), the composition of the invention (B1), comprising a compound of formula (I), has a biodegradability of 70%, i.e. greater than 60%. […] Its Log Pow measured according to OCDE 117 by HPLC is 2.93<3. Its Algal ecotoxicity is 2 mg·L^−1.

Data set [2] can be described thus: Bioaccumulation, Log Pow according to OCDE 117 by HPLC. The class given is physicochemical. The protocol: as §1

In the case of “di-tallow-hydrogenodimethylammonium chloride [Noramium® M2SH]”, in data set [1], the Biodegradability classification result is reported as “not biodegradable”. For the same substance, the “Bioaccumulation, in words” value in data set [2] is “bioaccumulable”.
As for “dicocoyldimethylammonium chloride [Noramium® M2C]”, the Biodegradability classification result in data set [1] is on record as “not biodegradable”. Further, in data set [2], the “Bioaccumulation, in words” value is reported as “bioaccumulable”.
